According to patent US7910622B2, “Modulation of bacterial quorum sensing with synthetic ligands” (Wisconsin Alumni Research Foundation, priority 2007, dated 2011):
Like-named read-outs stand apart in the source and are kept apart here.

What was measured:
Assay in all cases: cell-based
[1] = biological target: T1, TraR (Agrobacterium tumefaciens, UniProt P33905); conditions: for activation at 10 µM: read-out: A. tumefaciens-TraR Activation [%]; for inhibition at 10 µM: read-out: A. tumefaciens-TraR Inhibition [%], 10 μM synthetic ligand against 100 nM OOHL; for inhibition at 10 µM / A. tumefaciens-TraR Activation [%] / A. tumefaciens-TraR Inhibition [%]: A. tumefaciens WCF47 (pCF372), normalized to OOHL; for Activation (%) / Inhibition (%): A. tumefaciens-TraR; for Activation (%): Library C primary agonism screen; for Inhibition (%): Library C primary antagonism screen; for A. tumefaciens-TraR Activation [%]: 10 μM ligand; for A. tumefaciens-TraR Inhibition [%]: 10 μM synthetic ligand against 100 nM OOHL
T1 construct: These strains lack their AHL synthase (I) genes, but retain their native R genes; endogenous in cells; host or cells: A. tumefaciens WCF47 (Δ-traI) with PtraI-lacZ plasmid pCF372
Procedure: A. tumefaciens reporter gene assay protocols. […] An overnight culture of A. tumefaciens WCF47 (pCF372) was diluted to an OD600 of 0.1 in fresh AB minimal medium containing 400 μg/mL octopine and 50 μg/mL streptomycin. A 200 μL-portion of the diluted culture was added to each well of the multititer plate containing AHLs. Plates were grown at 28° C. for 18-20 h in a rotary shaking incubator (200 rpm). The cultures were then assayed for β-galactosidase activity following the Miller assay method. Briefly, 200 μL aliquots of bacteria from each of the wells were added to wells of a polystyrene 96-well plate and the OD600 of each well was recorded. Next, 50 μL aliquots from each well were transferred to a solvent resistant 96-well plate containing 200 μL Z buffer, 8 μL CHCl3 and 4 μL 0.1% aq. sodium dodecylsulfate (SDS). This suspension was mixed via repetitive pipetting, after which the CHCl3 was allowed to settle. A 100-μL aliquot from each well was transferred to a fresh polystyrene 96-well plate, and 20 μL of substrate, o-nitrophenyl-β-D-galactopyranoside (ONPG, 4 μg/mL in phosphate buffer), was added at time zero. After the development of appropriate yellow color (ca. 15-35 min), the reaction was terminated by the addition of 50 μL of 1 M Na2CO3. Absorbance at 420 nm and 550 nm was measured for each well using a plate reader, and Miller units were calculated according to standard methods.
(§1) Dose response reporter gene assays. […] IC50 and EC50 values were calculated using GraphPad Prism software (v. 4.0) using a sigmoidal curve fit.
A. tumefaciens reporter gene assay protocols. […] An overnight culture of A. tumefaciens WCF47 (pCF372) was diluted 1:10 with fresh AB minimal medium containing 400 μg/mL octopine and 50 μg/mL streptomycin. A 200 μL portion of the diluted culture was added to each well of the multititer plate containing AHLs. Plates were incubated at 28° C. for 18-24 h. The cultures were then assayed for β-galactosidase activity following the Miller assay method. Briefly, 200 μL aliquots of bacteria from each of the wells were added to wells of a 96-well multititer plate, and the OD600 of each well was recorded. Next, 50 μL aliquots from each well were transferred to a solvent resistant 96-well multititer plate containing 200 μL Z buffer, 8 μL CHCl3 and 4 μL 0.1% aq. SDS. This suspension was mixed via repetitive pipetting, after which the CHCl3 was allowed to settle. A 100 μL aliquot from each well was transferred to a fresh 96-well multititer plate, and 20 μL of substrate, o-nitrophenyl-β-D-galactopyranoside (ONPG, 4 μg/mL in phosphate buffer), was added at time zero. After the development of appropriate yellow color (ca. 20-30 min), the reaction was terminated by the addition of 50 μL of 1 M Na2CO3. Absorbances at 420 nm and 550 nm were measured for each well using a plate reader, and Miller units were calculated according to standard methods.
as §1

[2] = biological target: T2, LasR (Pseudomonas aeruginosa, UniProt P25084); assay type: cell-based; conditions: for inhibition at 5 µM: read-out: E. coli-LasR Inhibition [%], 5 μM synthetic ligand against 7.5 nM OdDHL; for inhibition at 5 µM / E. coli-LasR Inhibition [%]: E. coli DH5α (pJN105L pSC11), normalized to OdDHL; for Inhibition (%): E. coli-LasR, Library C primary antagonism screen; for E. coli-LasR Inhibition [%]: 5 μM synthetic ligand against 7.5 nM OdDHL
T2 construct: expressed in transfected cells; host or cells: E. coli DH5α (pJN105L pSC11), arabinose-induced
Procedure: (§2) E. coli LasR reporter gene assay protocols. […] An overnight culture of E. coli DH5a (pJN105L pSC11) grown at 37° C. was subculture by diluting 1/10 in fresh LB medium containing 100 μg/mL ampicillin and 15 μg/mL gentamicin and shaking at 37° C. until OD600=0.3. Arabinose (4 mg/mL) was then added to induce the LasR promoter and a 200 μL-portion of this culture was added to each well of the multititer plate containing AHLs. Plates were grown at 37° C. for 2 hours in a rotary shaking incubator (200 rpm; OD600=0.45). The cultures were then assayed for activity following the identical β-galactosidase assay protocols used in the A. tumefaciens reporter gene assays.
as §1
(§3) E. coli LasR reporter gene assay protocols. […] An overnight culture of E. coli DH5α (pJN105L pSC11) was diluted 1:10 with fresh LB medium containing 100 μg/mL ampicillin and 15 μg/mL gentamicin. This sub-culture was incubated at 37° C. until OD600=0.3 (4-6 h). Arabinose (4 mg/mL) was then added to induce the LasR promoter, and a 200 μL portion of this culture was added to each well of the multititer plate containing AHLs. Plates were incubated at 37° C. until OD600=0.45 (4-6 h). The cultures were then assayed for LasR activity following the identical β-galactosidase assay protocols used in the A. tumefaciens reporter gene assays (see above).
as §1

[3] = biological target: T2, LasR; conditions: for activation at 5 µM: read-out: E. coli-LasR Activation [%], 5 μM ligand; for activation at 5 µM / E. coli-LasR Activation [%]: E. coli DH5α (pJN105L pSC11), normalized to OdDHL; for Activation (%): E. coli-LasR, Library C primary agonism screen; for E. coli-LasR Activation [%]: 5 μM ligand; for EC50: read-out: LasR EC50
Procedure: as §2, §1, §3, §1

[4] = biological target: T3, LuxR (Aliivibrio fischeri, UniProt P35327); assay type: cell-based, Vibrio fischeri; conditions: for Inhibition (%): V. fischeri-LuxR, Library C primary antagonism screen; for V. fischeri-LuxR Inhibition [%]: 5 μM synthetic ligand against 5 μM OHHL
T3 construct: a Δ-luxI derivative of V. fischeri ES114, in which the native lux operon behaves as the bioluminescent reporter; endogenous in cells; host or cells: V. fischeri ES114 (Δ-luxI)
Procedure, shortened: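 Whole-cell luminescence reporter in V. fischeri ES114 (WT, Δ-luxI or Δ-luxR) or E. coli, overnight cultures diluted 1:10 and grown with compound at RT (E. coli 30° C) to OD600 0.35-0.4 (4-6 h). Luminescence normalized to cell density, triplicates; EC50/IC50 from sigmoidal fit.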

[5] = biological target: T3, LuxR; parameters: species or system Vibrio fischeri; conditions: for activation at 200 µM: read-out: V. fischeri-LuxR Activation [%], 200 μM ligand; for activation at 200 µM / V. fischeri-LuxR Activation [%]: V. fischeri ES114 (Δ-luxI), normalized to OHHL; for Activation (%): V. fischeri-LuxR, Library C primary agonism screen; for V. fischeri-LuxR Activation [%]: 200 μM ligand
Procedure: Luminescence assays. For agonism assays, an appropriate amount of AHL stock solution was added into a 96-well plate. An overnight culture of E. coli or V. fischeri was diluted 1:10 with appropriate media (LB plus 10 μg/mL tetracycline for E. coli; LBS for V. fischeri). A 200-μL portion of the diluted culture was added to each well of the plate. Plates were grown for 4-8 h with shaking (200 rpm; 30° C. for E. coli and RT for V. fischeri). Luminescence was measured using a multilabel plate reader and normalized to cell density. […] All assays were performed in triplicate. Graphpad Prism software was used to calculate IC50 and EC50 values.
Vibrio fischeri assay procedures. […] An overnight culture of V. fischeri ES114 (WT, Δ-luxI or Δ-luxR) was diluted 1:10 with LBS medium. A-200 μL portion of the diluted culture was added to each well of the plate. Plates were grown at RT with shaking (200 rpm) until the OD600=0.35-0.4 (4-6 h). Luminescence then was measured and normalized to cell density per well. […] All assays were performed in triplicate. IC50 and EC50 values were calculated using GraphPad Prism software using a sigmoidal curve fit.
(§4) V. fischeri reporter gene assay protocols. […] An overnight culture of V. fischeri ES114 (D-luxI) was diluted 1:10 with LBS medium. A 200-μL portion of the diluted culture was added to each well of the multititer plate. Plates were grown at RT with shaking (200 rpm) until the OD600=0.35-0.4 (4-6 h). Luminescence then was measured and normalized to cell density per well.
as §1
as §4, with “(Δ-luxI)” for “(D-luxI)”, “A200 μL” for “A 200-μL”, “incubated” for “grown”, “RT” for “RT with shaking (200 rpm)”
as §1

[6] = V. fischeri ES114 (Δ-luxI), normalized to OHHL

T1 sequence (P33905 whole entry): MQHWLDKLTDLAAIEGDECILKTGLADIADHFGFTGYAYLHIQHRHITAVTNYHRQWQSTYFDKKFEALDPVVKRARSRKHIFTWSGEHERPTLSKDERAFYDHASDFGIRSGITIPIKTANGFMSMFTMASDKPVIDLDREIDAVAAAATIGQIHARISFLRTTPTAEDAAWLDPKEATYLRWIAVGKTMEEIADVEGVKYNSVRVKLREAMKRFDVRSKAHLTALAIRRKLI
T3 sequence (P35327 whole entry): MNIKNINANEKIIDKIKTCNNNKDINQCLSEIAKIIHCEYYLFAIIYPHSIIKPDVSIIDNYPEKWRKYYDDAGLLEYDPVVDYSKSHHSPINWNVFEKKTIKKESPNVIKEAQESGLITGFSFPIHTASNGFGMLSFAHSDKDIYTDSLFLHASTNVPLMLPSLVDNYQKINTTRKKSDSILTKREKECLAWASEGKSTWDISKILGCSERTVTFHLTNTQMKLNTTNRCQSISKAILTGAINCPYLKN
T2 sequence (P25084 whole entry): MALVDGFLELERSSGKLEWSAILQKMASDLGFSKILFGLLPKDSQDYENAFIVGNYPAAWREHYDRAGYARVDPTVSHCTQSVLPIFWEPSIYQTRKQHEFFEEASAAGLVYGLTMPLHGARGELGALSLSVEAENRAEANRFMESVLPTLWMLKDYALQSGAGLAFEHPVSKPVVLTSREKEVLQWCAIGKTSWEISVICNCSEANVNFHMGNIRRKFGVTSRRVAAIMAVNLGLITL

CCCCCCC(=O)NC1CCOC1=O (stereo not drawn) [compound 4]
IC50 [1]: 690 nM | activation at 10 µM [1]: 4% | inhibition at 10 µM [1]: ~90% | inhibition at 5 µM [2]: ~25% | activation at 5 µM [3]: 0% | IC50 ([4]; LuxR IC50, determined against 5 μM OHHL): 1360 nM | inhibition at 5 µM ([4]; read-out: V. fischeri-LuxR Inhibition [%], 5 μM synthetic ligand against 5 μM OHHL, V. fischeri ES114 (Δ-luxI), normalized to OHHL): ~76% | activation at 200 µM [5]: ~25%

4-methyl PHL [C19]
Activation (%) [1]: 3% | Inhibition (%) [1]: 21% | Inhibition (%) [2]: 11% | Activation (%) [3]: 0% | Inhibition (%) [4]: 58% | Activation (%) [5]: 1%

4-hydroxy PHL [C23]
Activation (%) [1]: 0% | Inhibition (%) [1]: 3% | Inhibition (%) [2]: 7% | Activation (%) [3]: 0% | Inhibition (%) [4]: 12% | Activation (%) [5]: 2%

O=C(CC(=O)N[C@@H]1CCOC1=O)Cc1ccccc1 [B2]
A. tumefaciens-TraR Activation [%] [1]: 2% | A. tumefaciens-TraR Inhibition [%] [1]: 50% | E. coli-LasR Inhibition [%] [2]: −7% | E. coli-LasR Activation [%] [3]: 84% | EC50 [3]: 540 nM | V. fischeri-LuxR Inhibition [%] [4, 6]: 46% | V. fischeri-LuxR Activation [%] [5]: 3%

O=C(CCCc1c[nH]c2ccccc12)N[C@@H]1CCOC1=O [A29]
A. tumefaciens-TraR Activation [%] [1]: 0% | A. tumefaciens-TraR Inhibition [%] [1]: 9% | E. coli-LasR Inhibition [%] [2]: 13% | E. coli-LasR Activation [%] [3]: 0% | V. fischeri-LuxR Inhibition [%] [4, 6]: 29% | V. fischeri-LuxR Activation [%] [5]: 2%

O=C(Cc1ccccc1I)N[C@H]1CCOC1=O [B15]
A. tumefaciens-TraR Activation [%] [1]: 0% | A. tumefaciens-TraR Inhibition [%] [1]: 5% | E. coli-LasR Inhibition [%] [2]: 17% | E. coli-LasR Activation [%] [3]: 0% | V. fischeri-LuxR Inhibition [%] [4, 6]: 63% | V. fischeri-LuxR Activation [%] [5]: 7%

CCOC(=O)/C=C/C(=O)N[C@H]1CCOC1=O [A20]
A. tumefaciens-TraR Activation [%] [1]: 0% | A. tumefaciens-TraR Inhibition [%] [1]: 3% | E. coli-LasR Inhibition [%] [2]: 13% | E. coli-LasR Activation [%] [3]: 0% | V. fischeri-LuxR Inhibition [%] [4, 6]: 37% | V. fischeri-LuxR Activation [%] [5]: 1%

CC(C)(C)OC(=O)NCc1ccc(C(=O)N[C@H]2CCOC2=O)cc1 [A21]
A. tumefaciens-TraR Activation [%] [1]: 0% | A. tumefaciens-TraR Inhibition [%] [1]: 13% | E. coli-LasR Inhibition [%] [2]: 12% | E. coli-LasR Activation [%] [3]: 0% | V. fischeri-LuxR Inhibition [%] [4, 6]: 35% | V. fischeri-LuxR Activation [%] [5]: 1%

O=C(CC1CCCC1)N[C@H]1CCOC1=O [B12]
A. tumefaciens-TraR Activation [%] [1]: 0% | A. tumefaciens-TraR Inhibition [%] [1]: 11% | E. coli-LasR Inhibition [%] [2]: 19% | E. coli-LasR Activation [%] [3]: 0% | V. fischeri-LuxR Inhibition [%] [4, 6]: 57% | V. fischeri-LuxR Activation [%] [5]: 3%

COc1ccccc1C1CCN(c2ccc(C=CC(=O)NC3CCOC3=O)cc2[N+](=O)[O-])CC1 (stereo not drawn) [D18]
A. tumefaciens-TraR Activation [%] [1]: 0% | A. tumefaciens-TraR Inhibition [%] [1]: 16% | E. coli-LasR Inhibition [%] [2]: 34% | E. coli-LasR Activation [%] [3]: 32% | LasR: maximum induction value achievable (value in parentheses) ([3]; at 200 μM ligand, relative to natural ligand): 32% | EC50 [3]: 470 nM | V. fischeri-LuxR Inhibition [%] [4, 6]: 19% | V. fischeri-LuxR Activation [%] [5]: 2%

O=C(Cc1ccc(C(F)(F)F)cc1)N[C@H]1CCOC1=O [B23, 4-trifluoromethyl PHL]
activation at 10 µM [1]: 2% | inhibition at 10 µM [1]: 92% | inhibition at 5 µM [2]: 26% | activation at 5 µM [3]: 0% | V. fischeri-LuxR Inhibition [%] [4, 6]: 78% | IC50 ([4]; determined against 5 μM OHHL, read-out: LuxR IC50): 610 nM | activation at 200 µM [5]: 3%

O=C(CCC(=O)OC(C(=O)c1ccccc1)c1ccccc1)N[C@H]1CCOC1=O (stereo partly drawn) [D19]
A. tumefaciens-TraR Activation [%] [1]: 0% | A. tumefaciens-TraR Inhibition [%] [1]: 11% | E. coli-LasR Inhibition [%] [2]: 17% | E. coli-LasR Activation [%] [3]: 7% | V. fischeri-LuxR Inhibition [%] [4, 6]: 30% | V. fischeri-LuxR Activation [%] [5]: 1%

O=C(Cc1ccc(N=Nc2ccccc2)cc1)NC1CCOC1=O (stereo not drawn) [B22]
A. tumefaciens-TraR Activation [%] [1]: 0% | A. tumefaciens-TraR Inhibition [%] [1]: 9% | E. coli-LasR Inhibition [%] [2]: 13% | E. coli-LasR Activation [%] [3]: 1% | V. fischeri-LuxR Inhibition [%] [4, 6]: 63% | V. fischeri-LuxR Activation [%] [5]: 3%
